Results from patent US20250059196A1 (SHANGHAI HANSOH BIOMEDICAL CO., LTD., priority 2021, published 2025).

Columns and labels:
[1] = target: Recombinant human MALT1/MLT protein (Homo sapiens (Human), UniProt Q9UDY8); test: Inhibitory effect on MALT1 enzyme activity (Ac-LRSR-AMC substrate, fluorescence 460 nm); type: biochemical; conditions: 10 nM FL MALT1, Ac-LRSR-AMC substrate, 50 min pre-incubation, 4 h reaction
In short: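 Full-length MALT1 (10 nM) pre-incubated 50 min at room temperature with compound (11-point 3-fold series from 1000 nM), then 4 h reaction with […] Ac-LRSR-AMC in Tris pH 7.5, 0.6 M citrate, DTT, EDTA, BSA, 1.5% DMSO. Fluorescence at 460 nm; IC50 from four-parameter fit.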

OCI-Ly3 cells = test: Inhibition of proliferation of OCI-Ly3 cells (CellTiter-Glo); type: cell-based, human; conditions: Homo sapiens, 96 h incubation, read-out: Inhibition test of proliferation of OCI-Ly3 cells IC50
In short: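 OCI-Ly3 cells were plated and dosed the next day with 9 concentrations in 3-fold dilutions from 1000 nM to 0.15 nM. Cells were incubated 96 h, and viability was read by CellTiter-Glo luminescence. IC50 was fitted by four-parameter variable-slope log(inhibitor)-response regression.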

[2] = target: MALT1 protease activity in TMD8 cells (substrate BCL-10) (Homo sapiens (Human), UniProt Q9UDY8); test: Intracellular MALT1 protease activity detection (BCL-10 ELISA in TMD8 cells); type: cell-based; conditions: undigested BCL-10 by ELISA, 30 min compound then 2 h stimulation cocktail, read-out: Bcl10 TMD8 IC50
Sequence of MALT1 protease activity in TMD8 cells (substrate BCL-10) (Q9UDY8 whole entry): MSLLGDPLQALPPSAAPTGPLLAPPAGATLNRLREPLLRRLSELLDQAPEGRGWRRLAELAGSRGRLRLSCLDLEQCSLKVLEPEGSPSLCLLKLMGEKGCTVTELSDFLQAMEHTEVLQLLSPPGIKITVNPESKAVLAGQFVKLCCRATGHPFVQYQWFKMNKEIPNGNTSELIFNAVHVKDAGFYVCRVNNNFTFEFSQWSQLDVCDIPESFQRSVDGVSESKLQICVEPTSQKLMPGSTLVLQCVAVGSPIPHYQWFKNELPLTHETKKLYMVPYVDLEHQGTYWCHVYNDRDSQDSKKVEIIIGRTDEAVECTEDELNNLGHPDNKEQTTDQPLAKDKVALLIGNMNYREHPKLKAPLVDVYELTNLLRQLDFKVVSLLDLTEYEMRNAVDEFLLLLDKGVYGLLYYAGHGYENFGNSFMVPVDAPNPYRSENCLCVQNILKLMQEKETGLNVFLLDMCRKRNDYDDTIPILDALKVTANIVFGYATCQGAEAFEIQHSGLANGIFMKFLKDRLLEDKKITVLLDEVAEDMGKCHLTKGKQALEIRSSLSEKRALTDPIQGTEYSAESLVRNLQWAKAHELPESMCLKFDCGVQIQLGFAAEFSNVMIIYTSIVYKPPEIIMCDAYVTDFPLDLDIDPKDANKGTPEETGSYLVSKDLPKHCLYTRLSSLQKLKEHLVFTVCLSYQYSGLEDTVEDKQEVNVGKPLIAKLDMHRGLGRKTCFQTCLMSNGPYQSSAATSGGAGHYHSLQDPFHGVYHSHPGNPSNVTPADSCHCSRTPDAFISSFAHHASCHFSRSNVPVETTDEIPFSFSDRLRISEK
In short: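 TMD8 cells treated 30 min with compound (10000-1.5 nM, 9 points, 3-fold), then stimulated 2 h with cell stimulation cocktail. Undigested BCL-10 in lysates quantified by sandwich ELISA with TMB colour read-out; IC50 from four-parameter variable-slope fit.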

[3] = system: OCI-LY3 cell subcutaneous xenograft tumor; test: Tumor inhibition in OCI-LY3 subcutaneous xenograft NOG mouse model of human diffuse large B-cell lymphoma; type: in vivo; conditions: NOG mice, 30 mg, BID × 4 weeks, oral; for Weight Day 28: in g (unit assumed); for Tumor volume (Mean ± SD) Day 28: vehicle group 1274 ± 82
Experimental: The efficacy of test drugs was evaluated in OCI-LY3 mouse subcutaneous tumor model of human diffuse large B-cell lymphoma
• 1. Animal: NOG mice, female, 6-8 weeks old, weighing 18-22 grams, a total of 65 mice were needed. Provided by Beijing Vital River Laboratory Animal Technology Co., Ltd. or other qualified suppliers. • 2. Cell: Human diffuse large B-cell lymphoma OCI-LY3 cells were cultured in vitro as monolayers and conventional digestion treatment with trypsin-EDTA was carried out twice a week for passage. When the cell confluence was 80%-90% and the number reached the required number, cells were collected, counted, and inoculated. • 3. Grouping for vaccination: Cells (5×10^6 cells+Matrigel/0.2 ml) were inoculated subcutaneously into each mouse. The growth of animals and transplanted tumors were observed regularly. When the tumor grew to a volume of about 150-200 mm^3, the tumor volume of each mouse was calculated, and the mice were divided into random groups according to tumor volume and body weight. The calculation formula of tumor volume was V=0.5a×b^2, wherein a and b represented the long and short diameters of the tumor, respectively. • 4. Administration: According to the grouping results, the test drug was started to be administered (administration method: oral administration; Administration volume: 10 mL/kg; Administration frequency: 2 times/day; Administration cycle: 28 days; Vehicle: 10% solutol HS15-0.25% CMC-Na). Tumors were measured and weighed twice a week after starting administration of test drugs. • 5. Animals were euthanized after the experiment. • 6. Data processing: The tumor inhibitory efficacy of the compound was evaluated by TGI (%) or relative tumor proliferation rate T/C (%). TGI (%) reflects the tumor growth inhibition rate. Calculation of TGI (%): TGI (%)=[(1−(average tumor volume at the end of administration in a treatment group−average tumor volume at the beginning of administration in the treatment group))/(average tumor volume at the end of administration in the solvent control group−average tumor volume at the beginning of administration in the solvent control group)]×100%.
Relative tumor proliferation rate T/C (%): The calculation formulas are as follows: T/C %=TRTV/CRTV×100% (TRTV: RTV of treatment group; CRTV: RTV of negative control group). The relative tumor volume (RTV) was calculated based on the results of tumor measurement. The calculation formula is RTV=Vt/V0, where V0 is the average tumor volume measured at grouping for administration (i.e. d0), Vt is the average tumor volume at a certain measurement, and TRTV and CRTV take the data on the same day.
After the experiment, the tumor weight was measured, and the T/Cweight percentage was calculated. Tweight and Cweight represented the tumor weight of the administration group and the vehicle control group, respectively.
Remarks: The data in parentheses indicate the tumor volume corresponding to the vehicle group (i.e., the control group) at the corresponding time in this example.

Sequence of Recombinant human MALT1/MLT protein (Q9UDY8 whole entry): as above

IC50 [1] [nM] | IC50 (OCI-Ly3 cells) [nM] | IC50 [2] [nM] | Weight Day 28 [3] | Compound | TGI (%) Day 28 [3] [%] | ΔT/ΔC(%) Day 28 [3] [%] | Tumor volume (Mean ± SD) Day 28 [3]
171 | 211 | 50 | 21.15 ± 0.72 | O=C(Nc1ccnc(C(F)(F)F)c1)c1cnn(-c2ccc3c4c(cccc24)C(=O)N3)c1C1CC1 [Example 55, 5-cyclopropyl-1-(2-oxo-1,2-dihydrobenzo[cd]indol-6-yl)-N-(2-(trifluoromethyl)pyridin-4-yl)-1H-pyrazole-4-carboxamide] | 87.99 | 22.76 | 287 ± 25 (1274 ± 82) mm^3
25 | 101 | 56 | 20.06 ± 1.08 | O=C(Nc1ccc(-n2nccn2)c(Cl)c1)c1cnn(-c2ccc3c4c(cccc24)C(=O)N3)c1C(F)(F)F [Example 53, N-(3-chloro-4-(2H-1,2,3-triazol-2-yl)phenyl)-1-(2-oxo-1,2-dihydrobenzo[cd]indol-6-yl)-5-(trifluoromethyl)-1H-pyrazole-4-carboxamide] | 67.23 | 41.76 | 519 ± 89 (1274 ± 82) mm^3
24 | 88 | 61 | 21.03 ± 0.42 | O=C(Nc1cnc(-n2nccn2)c(C(F)(F)F)c1)c1cnn(-c2ccc3c4c(cccc24)C(=O)N3)c1C(F)(F)F [Example 18, N-(6-(2H-1,2,3-triazol-2-yl)-5-trifluoromethylpyridin-3-yl)-1-(2-oxo-1,2-dihydrobenzo[cd]indol-6-yl)-5-trifluoromethyl-1H-pyrazole-4-carboxamide] | 62.73 | 43.82 | 635 ± 46 (1274 ± 82) mm^3
